The source of these data is patent US20100003217A1, “Compounds and Pharmaceutical Compositions for the Treatment of Viral Infections” (priority 2008, published 2010).

Where “and” joins values, the source holds several entries; their conditions need not be identical. Equal values may be shown once.

The data set has as its system Huh-7 cells. Briefly: Metabolic disposition of [^14C]-Compound 1 and [^14C]-2′-C-methyl guanosine in Huh-7 cells (incubation medium, cellular extracts, nucleotide levels). The class given is in vitro ADME, human. Conditions: for Major metabolites observed in cellular extracts (% of total radioactivity) / 2′-C-methyl guanosine nucleotide levels in cellular extracts: Huh7; for % Residual [^14C]-Compound 1 in incubation medium / metabolites observed in medium (% of total radioactivity): Huh7 cells (n=2); for % Residual [^14C]-Compound 1 in incubation medium: 10 μM. How it is done:
Huh-7 cells: Confluent monolayers of Huh-7 cells were dispersed using trypsin-EDTA, rinsed and pelleted by centrifugation at 1,000 rpm (Beckman, Model Allegra 6R). Cells were resuspended at 0.2, 0.3 and 0.4×10^6 cells/mL of medium (DMEM supplemented with 1% pyruvate, 10% FBS, 0.5% penicillin-streptomycin, 1% L-glutamine, 1% non-essential amino acids and 22 mM HEPES). Multi-well collagen I-coated plates (rat tail collagen type I; 6-well) were then seeded by addition of 2.0 mL of cell suspension to achieve final cell density of 0.4, 0.6 and 0.8×10^6 cells/well and placed in an incubator at 37° C. overnight to allow cells to attach and acclimatize to culture and the medium. Duplicate plates were prepared with the same cell density for cell number determination at each time point.
Huh-7 incubations were conducted in a final volume of 2.0 mL Huh7 culture medium/well ([…]). Culture medium from overnight incubation of cells was removed and replaced with fresh culture medium, pre-warmed to 37° C. containing [^14C]-Compound 1 or [^14C]-2′-C-methyl guanosine as described above for primary hepatocytes. After 24, 48 and 72 hours, 0.5-1.0 mL of incubation medium was removed and stored at −20° C. until analysis (described below). The remaining medium was discarded and cell monolayers processed and extracted as described above.
Preliminary identification of putative metabolites was conducted by comparing the retention time of observed metabolites in incubation medium and cellular extracts with retention times obtained with chemically synthesized standards using the chromatography conditions described below. Further identification of 2′-C-methyl guanosine nucleotides (mono-, di- and triphosphate) was carried out by incubating cellular extract samples with alkaline phosphatase (10 units for 60 min at 37° C.) and comparing the HPLC retention times of the resulting nucleosides with that of authentic 2′-C-methyl guanosine.
Cellular extracts were prepared by centrifugation at 16,000 RCF using an Eppendorf microcentrifuge (Eppendorf, Model 5415D) for 10 min to remove cellular debris. An aliquot of 5-10 μL of the supernatant was added to 5 mL of EcoLite™ (MP, Irvine, Calif.) liquid scintillation cocktail and radioactivity measured by liquid scintillation counting (LSC) using a Beckman Coulter LS6500 multipurpose liquid scintillation counter (Beckman Instruments, Fullerton, Calif.). The remaining sample was then dried using a Labconco refrigerated centrivap concentrator (Labconco, Kansas City, Mo.). Dry extracts were reconstituted in 120 μL of HPLC-grade water and centrifuged at 16,000 RCF using an Eppendorf microcentrifuge for 10 min. Prior to HPLC analysis (described below), radioactivity of the concentrated extracts was measured by LSC using 5 μL aliquots. Extraction recovery was then determined by comparing total radioactivity in extracts before and after drying. The remaining extract was then analyzed by HPLC with online radioactivity detection using a Flow Scintillation Analyzer Radiomatic™ 515TR. Radioactivity in the separated components was quantified by integrating the peaks using Flo-One™ Software (Perkin Elmer Life Sciences). Samples with poor recovery (<85%) were re-analyzed when possible.
Incubation medium samples were thawed at room temperature, vortexed and centrifuged at 16,000 RCF using an Eppendorf microcentrifuge. An aliquot of 10 μL was added to 5 mL of EcoLite™ (MP, Irvine, Calif.) liquid scintillation cocktail and radioactivity measured by LSC using a Beckman Coulter LS6500 multipurpose liquid scintillation counter (Beckman Instruments, Fullerton, Calif.). Samples (50-100 μL) were then analyzed by HPLC (described below) with online radioactivity detection using a Flow Scintillation Analyzer Radiomatic™ 515TR. Radioactivity in the separated components was quantified by integrating the peaks using Flo-One™ Software (Perkin Elmer Life Sciences). Samples with poor recovery (<85%) were re-analyzed when possible. […]

The mark [1] stands for this setting: 10 μM [^14C]-Compound 1, 24 h, first series.
Setting [2] is: 10 μM [^14C]-Compound 1, 24 h, second series.
Where [3] appears, read: 10 μM [^14C]-Compound 1, 48 h, first series.
The mark [4] stands for this setting: 10 μM [^14C]-Compound 1, 48 h, second series.
[5] abbreviates: 10 μM [^14C]-Compound 1, 72 h, first series.
[6] abbreviates: 10 μM [^14C]-Compound 1, 72 h, second series.
Where [7] appears, read: 10 μM [^14C]-2′-C-methyl guanosine, 24 h.
Setting [8] is: 10 μM [^14C]-2′-C-methyl guanosine, 48 h.
Where [9] appears, read: 10 μM [^14C]-2′-C-methyl guanosine, 72 h.

Consider `CC(C)(CO)C(=O)SCCOP(=O)(NCc1ccccc1)OC[C@H]1O[C@@H](n2cnc3c(=O)[nH]c(N)nc32)[C@](C)(O)[C@@H]1O` (mixture of isomers) [Compound 1, 3-hydroxy-2,2-dimethyl-thiopropionic acid S-(2-{[(2R,3R,4R,5R)-5-(2-amino-6-oxo-1,6-dihydro-purin-9-yl)-3,4-dihydroxy-4-methyl-tetrahydro-furan-2-ylmethoxy]-benzylamino-phosphoryloxy}-ethyl) ester], for which the “Major metabolites observed in cellular extracts (% of total radioactivity)” value runs as follows: under setting [1], 40.3 % of total radioactivity; under setting [2], 10.4 % of total radioactivity; under setting [3], 15.8 % of total radioactivity; under setting [4], 21.2 % of total radioactivity; under setting [5], 14.1 % of total radioactivity; under setting [6], 16.2 % of total radioactivity. In addition, the “% Residual [^14C]-Compound 1 in incubation medium” value (“% Residual” below) (0 h) was 98% and 96%; the “% Residual” value (24 h) is 86% and 85%; the “% Residual” value (48 h) was 76% and 77%; the “% Residual” value (72 h) was 67% and 65% and 68%. In addition, the “unchanged Compound 1, % of the total radioactivity” value (Huh7 cells, after 72 hours incubation with [^14C]-Compound 1) amounted to 15%.
On to `C[C@@]1(O)[C@H](O)[C@@H](CO)O[C@H]1n1cnc2c(=O)[nH]c(N)nc21` [2′-C-methyl guanosine, 9-(2-C-methyl-β-D-ribofuranosyl)guanine, reference compound], for which the “Major metabolites observed in cellular extracts (% of total radioactivity)” value is, setting by setting: under setting [7], 89.5 % of total radioactivity; under setting [8], 89.3 % of total radioactivity; under setting [9], 89.6 % of total radioactivity; under setting [1], “BLD^a (BLD = below limit of detection (30 DPM))”; under setting [2], “BLD^a (BLD = below limit of detection (30 DPM))”; under setting [3], “BLD (BLD = below limit of detection (30 DPM))”. Moreover, the “Major metabolites observed in cellular extracts (% of total radioactivity)” value is, setting by setting: under setting [4], 2.65 % of total radioactivity; under setting [5], “BLD (BLD = below limit of detection (30 DPM))”; under setting [6], “BLD (BLD = below limit of detection (30 DPM))”. Besides, where the note is “Huh7 cells”, the “metabolites in the incubation medium following incubation with [^14C]-2′-C-methyl guanosine” value is reported as “No metabolites were observed”. Moreover, the “metabolites observed in medium (% of total radioactivity)” value is, setting by setting: (10 μM [^14C]-Compound 1, 0 h) “BLD and BLD^a”; (10 μM [^14C]-Compound 1, 24 h) 2.2% and 1.10% and 1.2%; (10 μM [^14C]-Compound 1, 48 h) 2.7% and 0.5%; (10 μM [^14C]-Compound 1, 72 h) 2% and 2.3% and 1.5%.
For `C[C@@]1(O)[C@H](O)[C@@H](COP(=O)(O)NCc2ccccc2)O[C@H]1n1cnc2c(=O)[nH]c(N)nc21` [Compound 2, [(2R)-2-methyl-β-D-ribofuranosyl]guanine-N-benzylaminyl-5′-monophosphate], the “metabolites observed in medium (% of total radioactivity)” value was 1.7% and 2.9% (10 μM [^14C]-Compound 1, 0 h); 8.2% and 8.0% (10 μM [^14C]-Compound 1, 24 h); 18.3% and 17.2% (10 μM [^14C]-Compound 1, 48 h); 26% and 25.3% and 27.2% (10 μM [^14C]-Compound 1, 72 h).
Take `C[C@@]1(O)[C@H](O)[C@@H](COP(=O)(O)O)O[C@H]1n1cnc2c(=O)[nH]c(N)nc21` [Compound 5, [(2R)-2-methyl-β-D-ribofuranosyl]guanine 5′-monophosphate]: the “2′-C-methyl guanosine nucleotide levels in cellular extracts” value is 0 pmol/million cells (10 μM [^14C]-2′-C-methyl guanosine, 0 h, n = 1); “BLD^a (BLD = below limit of detection (0.02 pmol/million cells))” (10 μM [^14C]-2′-C-methyl guanosine, 24 h, n = 1); “BLD (BLD = below limit of detection (0.02 pmol/million cells))” (10 μM [^14C]-2′-C-methyl guanosine, 48 h, n = 1); “BLD (BLD = below limit of detection (0.02 pmol/million cells))” (10 μM [^14C]-2′-C-methyl guanosine, 72 h, n = 1); 0 pmol/million cells (10 μM [^14C]-Compound 1, 0 h, replicate 1 of n = 2); 0 pmol/million cells (10 μM [^14C]-Compound 1, 0 h, replicate 2 of n = 2). For the same molecule, the “2′-C-methyl guanosine nucleotide levels in cellular extracts” value by setting is: (10 μM [^14C]-Compound 1, 24 h, replicate 1 of n = 2) “BLD^a (BLD = below limit of detection (0.02 pmol/million cells))”; (10 μM [^14C]-Compound 1, 24 h, replicate 2 of n = 2) 1.40 pmol/million cells; (10 μM [^14C]-Compound 1, 48 h, replicate 1 of n = 2) 1.50 pmol/million cells; (10 μM [^14C]-Compound 1, 48 h, replicate 2 of n = 2) 1.50 pmol/million cells; (10 μM [^14C]-Compound 1, 72 h, replicate 1 of n = 2) 1.10 pmol/million cells; (10 μM [^14C]-Compound 1, 72 h, replicate 2 of n = 2) 1.10 pmol/million cells. Besides, the “Major metabolites observed in cellular extracts (% of total radioactivity)” value runs as follows: under setting [7], “BLD^a (BLD = below limit of detection (30 DPM))”; under setting [8], “BLD (BLD = below limit of detection (30 DPM))”; under setting [9], “BLD (BLD = below limit of detection (30 DPM))”; under setting [1], “BLD (BLD = below limit of detection (30 DPM))”; under setting [2], 4.81 % of total radioactivity; under setting [3], 6.57 % of total radioactivity. Further, the “Major metabolites observed in cellular extracts (% of total radioactivity)” value is, setting by setting: under setting [4], 5.82 % of total radioactivity; under setting [5], 6.93 % of total radioactivity; under setting [6], 5.74 % of total radioactivity. The “metabolites observed in medium (% of total radioactivity)” value (10 μM [^14C]-Compound 1, 0 h) was “BLD”; the “metabolites observed in medium (% of total radioactivity)” value (10 μM [^14C]-Compound 1, 24 h) is 2.0% and 3.2%; the “metabolites observed in medium (% of total radioactivity)” value (10 μM [^14C]-Compound 1, 48 h) is 0.8% and 1.5%; the “metabolites observed in medium (% of total radioactivity)” value (10 μM [^14C]-Compound 1, 72 h) is 0.7% and 1.0%.
